Read-outs that look alike come from different tables or passages of the source. Blank lines part the entries; values can stand above or below the molecule they belong to.
Tests used:
Experiment in all cases: CRE-luciferase assay of odorant receptor activation (Dual-Glo, Hana3A cells, RTP1S), dose-response EC50
Type in all cases: cell-based
[1] = target: T1, human odorant receptors (ORs) (Homo sapiens, UniProt Q8WZ94); conditions: receptor OR5P3; 0 = no response; read-out: log EC50, OR5P3 (converted)
T1 construct: OR open reading frames were amplified from genomic DNA; expressed in transfected cells; host or cells: Hana3A cells, co-transfected with RTP1S, CRE-luciferase and pRL-SV40
T1 sequence (Q8WZ94 1-311): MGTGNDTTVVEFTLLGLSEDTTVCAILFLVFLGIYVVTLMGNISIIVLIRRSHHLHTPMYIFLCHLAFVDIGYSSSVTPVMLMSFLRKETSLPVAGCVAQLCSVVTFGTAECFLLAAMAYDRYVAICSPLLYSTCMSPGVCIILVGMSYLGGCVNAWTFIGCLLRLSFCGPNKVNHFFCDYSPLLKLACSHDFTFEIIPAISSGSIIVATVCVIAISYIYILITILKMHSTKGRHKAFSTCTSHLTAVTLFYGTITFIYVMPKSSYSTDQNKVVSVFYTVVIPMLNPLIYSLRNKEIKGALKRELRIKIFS
Text: (§1) Cloning mouse and human ORs. […] OR open reading frames were amplified from genomic DNA using proofreading KOD DNA polymerase (Toyobo/Novagen) and subcloned into pCI expression vectors (Promega) containing the first 20 residues of human rhodopsin (Rho tag). The sequences of the cloned receptors were verified by sequencing (3100 Genetic Analyzer, ABI Biosystems). Immunocytochemistry and FACS analysis. […] For FACS analysis, phycoerythrin (PE)-conjugated anti-mouse IgG (Jackson Immunologicals) was used. In order to monitor the transfection efficiency, Green Fluorescent Protein (GFP) was co-transfected with the OR. The intensity of receptor cell surface expression was calculated as the ratio of PE and GFP expression. 7-aminoactinomycin D (Calbiochem) was added before flow cytometry to mark dead cells which were excluded from the analysis. The gate and mean of PE positive cells was normalized by GFP values. Luciferase assay. […] Odorant receptor activation leads to an increase in intracellular cAMP; CRE-luciferase (Stratagene) was used to measure this change. […] Hana3A cells were plated on poly-D-lysine-coated 96-well plates (BioCoat; Becton Dickinson). […] For each 96-well plate transfected, 1 μg of CRE-Luc, 1 μg of pRL-SV40, 5 μg of odorant receptor plasmid, and 1 μg of RTP1S was used. Approximately 24 hours post transfection, the medium was replaced with CD293 chemically defined medium (Gibco) and the plate was incubed for 30 min at 37° C. The medium was then replaced with 25 μL of odorant solution diluted in CD293 and the plate was incubated for 4 hrs at 37° C. and 5% CO2. The manufacturer's protocols for measuring luciferase and Renilla luciferase activities was followed. […] All luminescence values were divided by the Renilla Luciferase activity to control for transfection efficiency in a given well. Normalized luciferase activity was calculated using the formula (LN−Lmin)/(Lmax−Lmin), where LN is the luminescence of firefly luciferase in response to the odorant, Lmin is the minimum luciferase value on a plate or set of plates, and Lmax is the maximum luciferase value on a plate or set of plates. The data was analyzed using Microsoft Excel and GraphPad Prism 4. Screening procedure. The entire OR library was stimulated with eight separate odorant mixtures formed from 93 odorants (FIG. 12). […] A comparison between the 93 individual odorants at a 100 μM dose and a no-odor control was performed for all 290 […]. Each comparison was performed in triplicate; statistical significance was assessed by t-test (uncorrected for multiple comparisons). […] A single odorant was used on each plate to avoid cross-contamination, and each OR odorant dose was tested at least three times. The data was fit to a sigmoidal curve. […] Physicochemical descriptors. […] Receptor descriptors. […] Correlations between descriptors and responses. […] All odorants for which there were fewer than 3 responsive receptors were eliminated. […] The Pearson correlation between these two sets of distances was then measured. Optimizing descriptors. […] In this method one begins with an empty set of descriptors. Each descriptor is combined with the previous set of descriptors and correlation values are computed for all of these candidate sets of descriptors. To reduce overfitting, the data is randomly divided into ten subsets and correlation values are computed for each leave-one out subset. The final correlation coefficient for each set of descriptors is the average of the correlation coefficients for each subset.
(§2) The entire OR library was stimulated with one of 8 odorant mixtures drawn from 93 odorants chosen to represent diverse functional groups, sizes, and structures (Table 3). Each mixture was applied at five different concentrations. […] The 93 odorants were then applied individually at 100 μM to the 290 mixture-responsive ORs.

[2] = target: T2, human odorant receptors (ORs) (Homo sapiens, UniProt Q9Y3N9)
T2 construct: OR open reading frames were amplified from genomic DNA; expressed in transfected cells; host or cells: Hana3A cells, co-transfected with RTP1S, CRE-luciferase and pRL-SV40
T2 sequence (Q9Y3N9 1-320): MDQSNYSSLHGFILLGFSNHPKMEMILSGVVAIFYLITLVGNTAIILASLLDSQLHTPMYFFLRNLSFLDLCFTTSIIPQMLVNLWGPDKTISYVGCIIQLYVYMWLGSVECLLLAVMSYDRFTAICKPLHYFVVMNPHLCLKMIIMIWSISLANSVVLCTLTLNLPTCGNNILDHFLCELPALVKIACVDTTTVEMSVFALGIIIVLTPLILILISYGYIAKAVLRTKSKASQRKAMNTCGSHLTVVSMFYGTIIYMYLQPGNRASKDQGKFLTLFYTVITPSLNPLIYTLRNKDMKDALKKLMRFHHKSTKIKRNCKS
Text: as §1, §2

[3] = system: mouse odorant receptors (ORs); conditions: for log EC50, MOR203-1: receptor MOR203-1; for log EC50, MOR261-1: receptor MOR261-1
Text: (§3) Cloning mouse and human ORs. […] OR open reading frames were amplified from genomic DNA using proofreading KOD DNA polymerase (Toyobo/Novagen) and subcloned into pCI expression vectors (Promega) containing the first 20 residues of human rhodopsin (Rho tag). The sequences of the cloned receptors were verified by sequencing (3100 Genetic Analyzer, ABI Biosystems). Immunocytochemistry and FACS analysis. […] For FACS analysis, phycoerythrin (PE)-conjugated anti-mouse IgG (Jackson Immunologicals) was used. In order to monitor the transfection efficiency, Green Fluorescent Protein (GFP) was co-transfected with the OR. The intensity of receptor cell surface expression was calculated as the ratio of PE and GFP expression. 7-aminoactinomycin D (Calbiochem) was added before flow cytometry to mark dead cells which were excluded from the analysis. The gate and mean of PE positive cells was normalized by GFP values. Luciferase assay. […] Odorant receptor activation leads to an increase in intracellular cAMP; CRE-luciferase (Stratagene) was used to measure this change. […] Hana3A cells were plated on poly-D-lysine-coated 96-well plates (BioCoat; Becton Dickinson). […] For each 96-well plate transfected, 1 μg of CRE-Luc, 1 μg of pRL-SV40, 5 μg of odorant receptor plasmid, and 1 μg of RTP1S was used. Approximately 24 hours post transfection, the medium was replaced with CD293 chemically defined medium (Gibco) and the plate was incubed for 30 min at 37° C. The medium was then replaced with 25 μL of odorant solution diluted in CD293 and the plate was incubated for 4 hrs at 37° C. and 5% CO2. The manufacturer's protocols for measuring luciferase and Renilla luciferase activities was followed. […] All luminescence values were divided by the Renilla Luciferase activity to control for transfection efficiency in a given well. Normalized luciferase activity was calculated using the formula (LN−Lmin)/(Lmax−Lmin), where LN is the luminescence of firefly luciferase in response to the odorant, Lmin is the minimum luciferase value on a plate or set of plates, and Lmax is the maximum luciferase value on a plate or set of plates. The data was analyzed using Microsoft Excel and GraphPad Prism 4. Screening procedure. The entire OR library was stimulated with eight separate odorant mixtures formed from 93 odorants (FIG. 12). […] A comparison between the 93 individual odorants at a 100 μM dose and a no-odor control was performed for all 290 […]. Each comparison was performed in triplicate; statistical significance was assessed by t-test (uncorrected for multiple comparisons). […] A single odorant was used on each plate to avoid cross-contamination, and each OR odorant dose was tested at least three times. The data was fit to a sigmoidal curve. […] Physicochemical descriptors. […] Receptor descriptors. […] Correlations between descriptors and responses. […] All odorants for which there were fewer than 3 responsive receptors were eliminated. For all remaining odorant pairs the Pearson correlation between EC50 vectors and the Euclidean distance between descriptor vectors was calculated. The Pearson correlation between these two sets of distances was then measured. Optimizing descriptors. […] In this method one begins with an empty set of descriptors. Each descriptor is combined with the previous set of descriptors and correlation values are computed for all of these candidate sets of descriptors. To reduce overfitting, the data is randomly divided into ten subsets and correlation values are computed for each leave-one out subset. The final correlation coefficient for each set of descriptors is the average of the correlation coefficients for each subset. The set with the best correlation coefficient then becomes the new set of descriptors and the process is repeated until the correlation coefficient increases by less than 0.004 in three consecutive iterations.

[4] = target: T3, human odorant receptors (ORs) (Homo sapiens, UniProt O76002); conditions: receptor OR2J2; 0 = no response; read-out: log EC50, OR2J2 (converted)
T3 construct: OR open reading frames were amplified from genomic DNA; expressed in transfected cells; host or cells: Hana3A cells, co-transfected with RTP1S, CRE-luciferase and pRL-SV40
T3 sequence (O76002 1-312): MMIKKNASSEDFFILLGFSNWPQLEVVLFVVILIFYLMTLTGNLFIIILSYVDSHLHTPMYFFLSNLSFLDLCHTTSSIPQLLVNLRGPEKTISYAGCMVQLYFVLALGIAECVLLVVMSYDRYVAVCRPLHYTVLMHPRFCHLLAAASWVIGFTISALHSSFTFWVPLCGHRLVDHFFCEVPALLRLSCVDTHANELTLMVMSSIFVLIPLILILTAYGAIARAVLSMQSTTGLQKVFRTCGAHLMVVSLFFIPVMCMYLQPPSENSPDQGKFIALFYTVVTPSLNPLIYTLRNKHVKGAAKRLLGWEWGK
Text: as §1, §2

[5] = target: T4, mouse odorant receptors (ORs) (Mus musculus, UniProt P23275)
T4 construct: OR open reading frames were amplified from genomic DNA; expressed in transfected cells; host or cells: Hana3A cells, co-transfected with RTP1S, CRE-luciferase and pRL-SV40
T4 sequence (P23275 1-312): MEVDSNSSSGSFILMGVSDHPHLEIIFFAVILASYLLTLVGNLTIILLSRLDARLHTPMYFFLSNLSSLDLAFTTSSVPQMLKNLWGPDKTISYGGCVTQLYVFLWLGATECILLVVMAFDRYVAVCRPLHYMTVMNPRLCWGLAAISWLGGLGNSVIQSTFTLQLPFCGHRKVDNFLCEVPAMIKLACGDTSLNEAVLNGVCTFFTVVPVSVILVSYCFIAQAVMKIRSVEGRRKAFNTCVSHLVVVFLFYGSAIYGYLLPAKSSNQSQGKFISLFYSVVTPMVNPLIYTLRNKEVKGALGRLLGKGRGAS
Text: as §3

[6] = target: T5, human odorant receptors (ORs) (Homo sapiens, UniProt Q8TCB6); conditions: receptor OR51E1
T5 construct: OR open reading frames were amplified from genomic DNA; expressed in transfected cells; host or cells: Hana3A cells, co-transfected with RTP1S, CRE-luciferase and pRL-SV40
T5 sequence (Q8TCB6 1-318): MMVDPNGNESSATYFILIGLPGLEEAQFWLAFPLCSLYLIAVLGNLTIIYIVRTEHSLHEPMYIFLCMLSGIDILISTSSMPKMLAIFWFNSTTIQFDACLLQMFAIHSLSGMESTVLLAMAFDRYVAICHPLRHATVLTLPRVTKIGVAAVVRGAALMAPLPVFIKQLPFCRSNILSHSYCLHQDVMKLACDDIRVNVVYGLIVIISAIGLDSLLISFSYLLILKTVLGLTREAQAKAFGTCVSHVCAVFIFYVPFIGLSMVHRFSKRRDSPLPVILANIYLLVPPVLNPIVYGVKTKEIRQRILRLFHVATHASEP
Text: as §1, §2

[7] = target: T6, human odorant receptors (ORs) (Homo sapiens, UniProt Q8NGJ5); conditions: receptor OR51L1; read-out: log EC50 of odorant at OR51L1 (0 = no response) (converted)
T6 construct: OR open reading frames were amplified from genomic DNA; expressed in transfected cells; host or cells: Hana3A cells, co-transfected with RTP1S, CRE-luciferase and pRL-SV40
T6 sequence (Q8NGJ5 1-315): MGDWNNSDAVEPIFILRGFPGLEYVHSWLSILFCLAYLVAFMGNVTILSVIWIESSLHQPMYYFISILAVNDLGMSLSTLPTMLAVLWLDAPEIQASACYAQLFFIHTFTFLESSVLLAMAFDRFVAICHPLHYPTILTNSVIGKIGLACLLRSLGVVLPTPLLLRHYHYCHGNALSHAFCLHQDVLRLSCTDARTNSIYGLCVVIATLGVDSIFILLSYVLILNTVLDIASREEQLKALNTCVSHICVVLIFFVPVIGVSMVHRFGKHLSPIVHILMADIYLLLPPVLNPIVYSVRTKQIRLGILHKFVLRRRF
Text: as §1, §2

[8] = receptor OR2W1, 0 = no response, read-out: log EC50, OR2W1 (converted)
[9] = receptor MOR41-1, 0 = no response

SMILES: CCCCCCO [1-Hexanol]
EC50 [1]: 175 µM
EC50 [2, 8]: 14.1 µM
log EC50, MOR41-1 [3, 9]: −4.064

SMILES: CCCC(=O)C(C)=O [23-Haxanedione]
EC50 [2, 8]: 434 µM
log EC50, MOR41-1 [3, 9]: −5.008
log EC50, MOR271-1 ([3]; receptor MOR271-1, 0 = no response): −4.824
EC50 ([5]; receptor MOR256-17, 0 = no response, read-out: log EC50, MOR256-17 (converted)): 14.5 µM

SMILES: CCC(=O)C(=O)CC [34-Hexanedione]
EC50 [2]: 16.6 µM
log EC50 (Table 4 value), MOR41-1 ([3]; receptor MOR41-1): −4.692
log EC50 (Table 4 value), MOR271-1 ([3]; receptor MOR271-1): −4.734
EC50 [5]: 12 µM

SMILES: CCCCOC(=O)C(C)OC(=O)CCC (centres unmarked) [Butyl butyryl actate]
log EC50 (Table 4 value), OR51E1 [6]: −3.473

SMILES: CCCCCC(=O)O [Hexanoic acid]
EC50 [7]: 147 µM
log EC50 of odorant at MOR1-1 (0 = no response) ([3]; receptor MOR1-1): −4.625

Other lines, results leading:

EC50 [2, 8]: 23.4 µM
EC50 [4]: 69.2 µM
log EC50, MOR203-1 ([3]; 0 = no response): −4.456
log EC50, MOR261-1 ([3]; 0 = no response): −4.914
SMILES: CCCCCCCCCO [1-Nononol]

EC50 [2, 8]: 7.45 µM
EC50 [4]: 69.2 µM
log EC50, MOR203-1 ([3]; 0 = no response): −3.563
log EC50, MOR261-1 ([3]; 0 = no response): −5.192
log EC50, MOR268-1 ([3]; receptor MOR268-1, 0 = no response): −3.63
SMILES: CCCCCCCCO [1-Octanol]
